Experimental data reported in patent publication US20240124442A1, “TRICYCLIC-AMIDO-BICYCLIC PRMT5 INHIBITORS” (AMGEN INC., priority 2021, published 2024).

Tests used:
[1] = tested on: HCT116 WT cells; assay: HCT116 WT (parent) cell line proliferation / cell viability (CellTiter-Glo, 6 days); format: cell-based; conditions: Homo sapiens, HCT-116, 144 h, 6 days treatment
Procedure, shortened: (§1)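 WT vs MTAP-null HCT116, 6 d drug, CTG readout. 1:3 × 8–9 pts (top 1/10 μM) or 1:2 × 22 pts (top 10/50 μM). IC50 by 4PL or Hill −1 fit.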

[2] = tested on: HCT116 MTAP null cells; assay: HCT116 MTAP null cell line proliferation / cell viability (CellTiter-Glo, 6 days); format: cell-based; conditions: 144 h; HCT116 MTAP null cells, 6 days treatment, CellTiter-Glo cell viability; read-out: HCT-116 MTAP null IC50
Procedure, shortened: as §1

| SMILES | IC50 [1] [nM] | IC50 [2] [nM] |
| --- | --- | --- |
| CN(C(=O)c1cc2c(cn1)nc(N)c1ncncc12)[C@@H]1COc2cc(C(F)(F)F)ccc21 [Example 224, 5-amino-N-methyl-N-((3S)-6-(trifluoromethyl)-2,3-dihydro-1-benzofuran-3-yl)pyrimido-[4,5-c][1,7]naphthyridine-9-carboxamide] | 3600 | 424 |
| CN(C(=O)c1ccc2nc(N)c3cnn(C)c3c2c1)[C@@H]1COCc2cc(C(F)(F)F)ccc21 [Example 499, 4-amino-N,1-dimethyl-N-((4S)-7-(trifluoromethyl)-3,4-dihydro-1H-2-benzopyran-4-yl)-1H-pyrazolo[4,3-c]quinoline-8-carboxamide] | 152 | 4 |
| CCN(C(=O)c1ccc2nc(N)c3c(c2c1)CO[C@@H]3C)[C@@H]1COc2cc(C(F)(F)F)ccc21 (single isomer, unassigned) [Example 539] | 663 | 15 |
| CN(C(=O)c1cc2c(cc1F)nc(N)c1c2cnn1C)[C@@H]1COCc2nc(C(F)(F)F)ccc21 [Example 515, 4-amino-7-fluoro-N,3-dimethyl-N-((5S)-2-(trifluoromethyl)-5,8-dihydro-6H-pyrano[3,4-b]pyridin-5-yl)-3H-pyrazolo[3,4-c]quinoline-8-carboxamide] | 3650 | 37 |
| C[C@H]1OCc2c1c(N)nc1cc(F)c(C(=O)N(C)[C@@H]3COc4cc(-c5cnn(C)c5)ccc43)cc21 [Example 217, (3R)-4-amino-7-fluoro-N,3-dimethyl-N-((3S)-6-(1-methyl-1H-pyrazol-4-yl)-2,3-dihydro-1-benzofuran-3-yl)-1,3-dihydrofuro[3,4-c]quinoline-8-carboxamide] | 1020 | 10 |
| CN(C(=O)c1ccc2nc(N)c3cnn(C)c3c2c1)[C@@H]1COc2cc(OC3CC3)ccc21 [Example 672, (S)-4-amino-N-(6-cyclopropoxy-2,3-dihydrobenzofuran-3-yl)-N,1-dimethyl-1H-pyrazolo[4,3-c]quinoline-8-carboxamide 2,2,2-trifluoroacetate] | 3520 | 44 |
| CN(C(=O)c1ccc2nc(N)c3ccncc3c2c1)[C@@H]1COc2cc(C(F)(F)F)ccc21 [Example 220, 5-amino-N-methyl-N-((3S)-6-(trifluoromethyl)-2,3-dihydro-1-benzofuran-3-yl)-benzo[c][2,6]naphthyridine-9-carboxamide] | 432 | 18 |
| CN(C(=O)c1ccc2nc(N)c3cnn(C)c3c2c1)[C@@H]1COc2cc(-c3c(C(F)(F)F)cnn3C)ccc21 [Example 653, 4-amino-N,1-dimethyl-N-((3S)-6-(1-methyl-4-(trifluoromethyl)-1H-pyrazol-5-yl)-2,3-dihydro-1-benzofuran-3-yl)-1H-pyrazolo[4,3-c]quinoline-8-carboxamide] | 735 | 19 |
| CN(C(=O)c1ccc2nc(N)c3cnn(C)c3c2c1)[C@@H]1COCc2c1ccc(C(F)(F)F)c2F (single isomer, unassigned) [Example 416] | 414 | 6 |
| CN(C(=O)c1cc2c(cc1Cl)nc(N)c1cnn(C)c12)[C@@H]1CCc2nc(C(F)(F)F)ccc21 (single isomer, unassigned) [Example 385] | 297 | 7 |
| CN(C(=O)c1cnc2nc(N)c3c(c2c1)COC3)[C@@H]1COCc2cc(C(F)(F)F)ccc21 [Example 493, 4-amino-N-methyl-N-((4S)-7-(trifluoromethyl)-3,4-dihydro-1H-2-benzopyran-4-yl)-1,3-dihydrofuro[3,4-c][1,8]naphthyridine-8-carboxamide] | 2050 | 92 |
| CN(C(=O)c1cc2c3c(c(N)nc2cc1Cl)COC3)[C@@H]1COCc2c1ccc(C(F)(F)F)c2F (single isomer, unassigned) [Example 404] | 250 | 9 |
| CN(C(=O)c1ccc2nc(N)c3cnn(C)c3c2c1)[C@@H]1COc2cc(C3COC3)ccc21 [Example 625, 4-amino-N,1-dimethyl-N-((3S)-6-(3-oxetanyl)-2,3-dihydro-1-benzofuran-3-yl)-1H-pyrazolo[4,3-c]quinoline-8-carboxamide] | 2320 | 29 |
| Nc1nc2cc(F)c(C(=O)N(CC3CC3)[C@@H]3COc4cc(C(F)(F)F)ccc43)cc2c2c1COC2 (single isomer, unassigned) [Example 556] | 133 | 11 |
| COc1ccc2c(c1)COC[C@H]2N(C)C(=O)c1ccc2nc(N)c3c(c2c1)COC3 (single isomer, unassigned) [Example 393] | 4070 | 136 |
| Cc1nn(C)c2c1c(N)nc1cc(F)c(C(=O)N(C)[C@@H]3COCc4nc(C(F)(F)F)ccc43)cc12 [Example 314, 4-amino-7-fluoro-N,1,3-trimeth-yl-N-((5S)-2-(trifluoromethyl)-5,8-dihydro-6H-pyrano[3,4-b]-pyridin-5-yl)-1H-pyrazolo[4,3-c]quinoline-8-carboxamide] | 2630 | 41 |
| CCN(C(=O)c1ccc2nc(N)c3cnn(C)c3c2c1)[C@@H]1COc2cc(C(F)(F)F)ccc21 (single isomer, unassigned) [Example 365] | 212 | 5 |
| C[C@H]1OCc2c1c(N)nc1cc(F)c(C(=O)N(C3CCC3)[C@H]3COc4cc(C(F)(F)F)ccc43)cc21 [Example 471, (3R)-4-amino-N-cyclobutyl-7-fluoro-3-methyl-N-((3R)-6-(trifluoromethyl)-2,3-dihydro-1-benzofuran-3-yl)-1,3-dihydrofuro[3,4-c]quinoline-8-carboxamide] | 13900 | 574 |
| COCCOc1ccc2c(c1)OC[C@H]2N(C)C(=O)c1ccc2nc(N)c3cnn(C)c3c2c1 [Example 678, 4-amino-N-((3S)-6-(2-methoxyethoxy)-2,3-dihydro-1-benzofuran-3-yl)-N,1-dimethyl-1H-pyrazolo[4,3-c]quinoline-8-carboxamide] | 2780 | 29 |
| CN(C(=O)c1cc2c3c(c(N)nc2cc1F)COC3)[C@H]1COc2cc(C(F)(F)F)ccc21 (single isomer, unassigned) [Example 553] | 11400 | 1380 |
| CN(C(=O)c1cc2c(cn1)nc(N)c1cnn(C)c12)[C@@H]1COc2cc(S(F)(F)(F)(F)F)ccc21 [Example 240, 4-amino-N,1-dimethyl-N-((3S)-6-(pentafluoro-lambda~6~-sulfanyl)-2,3-dihydro-1-benzofuran-3-yl)-1H-pyrazolo[4,3-c][1,7]naph-thyridine-8-carboxamide] | 250 | 13 |
| CN(C(=O)c1cc2c(cc1F)nc(N)c1cnn(C)c12)[C@@H]1COc2cc(C(F)(F)F)ccc21 (single isomer, unassigned) [Example 571] | 116 | 10 |
| CN(C(=O)c1cc2c(cn1)nc(N)c1cnn(C)c12)[C@@H]1COc2cc(C(F)(F)F)ccc21 [Example 237, 4-amino-N,1-dimethyl-N-((3S)-6-(trifluoromethyl)-2,3-dihydro-1-benzofuran-3-yl)-1H-pyr-azolo[4,3-c][1,7]naphthyridine-8-carboxamide] | 192 | 12 |
